Results taken from patent US20060041144A1 (priority 2002, published 2006).

Tests used:
Plasmopara viticola = assay: Preventive foliar spray test on grape inoculated with Plasmopara viticola zoosporangia (Test Examples 3 and 4); type: in vivo; settings: grape (variety: Berry A), flowable diluted to 200 ppm, foliar spray before inoculation, observed after 1 day at 23° C. plus 6 days in green house; Test Example 4
Method: Additionally, the control effect was evaluated by visually observing the area of a lesion on a sample plant in investigation and comparing the area of a lesion on a non-treatment plant and the area of a lesion on a treated plant with the compound of the present invention.
Sand loam was compacted in a plastic pot, and a grape (variety: Berry A) was seeded and grown in a green house for 40 days. The compounds of the present invention (I-1), (I-2), (I-6) to (I-12), (II-1), (III-1) and (IV-1) were formulated to flowable according to Formulation Example 6, then, diluted with water to provide given concentration of 200 ppm, and these diluted solutions were sprayed onto stems and leaves so as to give sufficient adhesion on the surface of grape leaves. After spraying, the liquid on the stem was air-dried, and a suspension of zoosporangiua of Plasmopara viticola (about 10,000 zoosporangiua were contained in 1 ml of the suspension) was inoculated by spraying. The amount of the sprayed suspension was about 2 ml for one plant. After inoculation, the plant was first grown for one day at 23° C. under 90% or more humidity, then further grown for 6 days in the green house, which was 24° C. in daytime and 20° C. in night-time.
Then, the areas of a lesion of the plants were obserbed. […]

Phytophthora infestans = type: in vivo; settings: tomato (variety: Ponterosa), flowable diluted to 200 ppm, foliar spray before inoculation, observed after 1 day at 23° C. plus 4 days in green house; Test Example 2

Compound: C#CCOC(C(=O)Nc1cccnc1-c1ccc(OC)c(OC)c1)c1ccc(Cl)cc1 (stereo not drawn) [I-1, N-(2-(3,4-dimethoxyphenyl)pyridine-3-yl)-2-(2-propynyloxy)-2-(4-chlorophenyl)acetamide]
- melting point: 125.2 °C

Compound: COc1ccc(-c2ncccc2NC(=O)C(O)c2ccc(C)cc2)cc1OC (stereo not drawn) [I-4, N-{2-(3,4-dimethoxyphenyl)pyridine-3-yl}-2-hydroxy-2-(4-methylphenyl)acetamide]
- lesion area on treated plants relative to the lesion area on a non-treatment plant (Plasmopara viticola): not more than 10%

Compound: COc1ccc(-c2ncccc2NC(=O)C(=C(Cl)Cl)c2ccc(Cl)cc2)cc1OC [I-11, N-(2-(3,4-dimethoxyphenyl)-pyridine-3-yl)-2-(chlorophenyl)-3,3-dichloroacrylamide]
- lesion area on treated plants relative to the lesion area on a non-treatment plant (Phytophthora infestans): not more than 10%
